Experimental data published in patent US4677100A, “Cephalosporin derivatives” (Banyu Pharmaceutical Co., Ltd., priority 1984, dated 1987).
In brackets after ≈: the same amount, converted by molar mass.

Assays:
[1] = tested on: S. aureus JS-1; assay: MIC, agar plate dilution method; type: cell-based; settings: Staphylococcus aureus, JS1; S. aureus JS-1; 10^6 CFU/ml; Sensitivity Disk Agar; read-out: Minimum Inhibitory Concentration
Procedure: (§1) The minimum inhibitory concentrations (MIC: μg/ml) of the compounds of the present invention against various microorganisms were measured by an agar plate dilution method (inoculum size: 10^6 CFU/ml) by using Sensitivity Disk Agar (Nissui) in comparison with Cefotaxime and Ceftazidime as comparative compounds.

[2] = tested on: E. coli ML1410/Rte16; assay: MIC, agar plate dilution method; type: cell-based; settings: Escherichia coli, ML1410/RTE16, read-out: Minimum Inhibitory Concentration
Procedure: as §1

[3] = tested on: E. coli CSH2; assay: MIC, agar plate dilution method; type: cell-based; settings: Escherichia coli, 10^6 CFU/ml, Sensitivity Disk Agar, read-out: Minimum Inhibitory Concentration
Procedure: as §1

[4] = tested on: S. aureus NIHJJC-1; assay: MIC, agar plate dilution method; type: cell-based; settings: Staphylococcus aureus, NIHJJC1; S. aureus NIHJJC-1; 10^6 CFU/ml; Sensitivity Disk Agar; read-out: Minimum Inhibitory Concentration
Procedure: as §1

[5] = tested on: E. coli NIHJJC-2; assay: MIC, agar plate dilution method; type: cell-based; settings: Escherichia coli, NIHJJC2; E. coli NIHJJC-2; 10^6 CFU/ml; Sensitivity Disk Agar; read-out: Minimum Inhibitory Concentration
Procedure: as §1

[6] = tested on: K. pneumoniae No. 42; assay: MIC, agar plate dilution method; type: cell-based; settings: Klebsiella pneumoniae; K. pneumoniae No. 42; 10^6 CFU/ml; Sensitivity Disk Agar; read-out: Minimum Inhibitory Concentration
Procedure: as §1

[7] = tested on: A. calcoaceticus No. 14; assay: MIC, agar plate dilution method; type: cell-based; settings: Acinetobacter calcoaceticus; for MIC: A. calcoaceticus No. 14, 10^6 CFU/ml, Sensitivity Disk Agar, read-out: Minimum Inhibitory Concentration
Procedure: as §1

[8] = tested on: E. cloaceae Nek 39; assay: MIC, agar plate dilution method; type: cell-based; settings: E. cloaceae Nek 39; 10^6 CFU/ml; Sensitivity Disk Agar; read-out: Minimum Inhibitory Concentration
Procedure: as §1

[9] = tested on: P. vulgaris OB1043; assay: MIC, agar plate dilution method; type: cell-based; settings: Proteus vulgaris; P. vulgaris OB1043; 10^6 CFU/ml; Sensitivity Disk Agar; read-out: Minimum Inhibitory Concentration
Procedure: as §1

[10] = tested on: E. coli C/Rms149; assay: MIC, agar plate dilution method; type: cell-based; settings: Escherichia coli, read-out: Minimum Inhibitory Concentration
Procedure: as §1

[11] = tested on: C. freundii No. 7; assay: MIC, agar plate dilution method; type: cell-based; settings: Citrobacter freundii; C. freundii No. 7; 10^6 CFU/ml; Sensitivity Disk Agar; read-out: Minimum Inhibitory Concentration
Procedure: as §1

[12] = tested on: P. mirabilis JY10; assay: MIC, agar plate dilution method; type: cell-based; settings: Proteus mirabilis; P. mirabilis JY10; 10^6 CFU/ml; Sensitivity Disk Agar; read-out: Minimum Inhibitory Concentration
Procedure: as §1

[13] = tested on: E. coli W3630/Rms213; assay: MIC, agar plate dilution method; type: cell-based; settings: Escherichia coli, W3630/RMS213, read-out: Minimum Inhibitory Concentration
Procedure: as §1

[14] = tested on: E. coli CSH; assay: MIC, agar plate dilution method; type: cell-based; settings: Escherichia coli, read-out: Minimum Inhibitory Concentration
Procedure: as §1

[15] = tested on: S. marcescens No. 16-2; assay: MIC, agar plate dilution method; type: cell-based; settings: Serratia marcescens, NO.162; S. marcescens No. 16-2; 10^6 CFU/ml; Sensitivity Disk Agar; read-out: Minimum Inhibitory Concentration
Procedure: as §1

[16] = tested on: E. coli W3630/Rms212; assay: MIC, agar plate dilution method; type: cell-based; settings: Escherichia coli, W3630/RMS212, read-out: Minimum Inhibitory Concentration
Procedure: as §1

[17] = tested on: P. vulgaris No. 33; assay: MIC, agar plate dilution method; type: cell-based; settings: Proteus vulgaris; P. vulgaris No. 33; 10^6 CFU/ml; Sensitivity Disk Agar; read-out: Minimum Inhibitory Concentration
Procedure: as §1

[18] = tested on: E. coli Juhl; assay: treatment of experimental infection of mice; type: in vivo
[19] = tested on: S. aureus Smith; assay: treatment of experimental infection of mice; type: in vivo
[20] = tested on: P. maltophilia IID 1275; assay: MIC, agar plate dilution method; type: cell-based, Pseudomonas maltophilia; settings: for MIC: Stenotrophomonas maltophilia, IID1275, P. maltophilia IID 1275, 10^6 CFU/ml, Sensitivity Disk Agar, read-out: Minimum Inhibitory Concentration
Procedure: as §1

[21] = tested on: P. cepacia 23; assay: MIC, agar plate dilution method; type: cell-based, Pseudomonas cepacia; settings: for MIC: Burkholderia cepacia, P. cepacia 23, 10^6 CFU/ml, Sensitivity Disk Agar, read-out: Minimum Inhibitory Concentration; for antibacterial activity relative to the compound of Reference Example: Pseudomonas cepacia 23
Procedure: as §1

[22] = tested on: Gram-positive bacteria and Gram-negative bacteria; assay: antibacterial activity, general statement; type: cell-based; settings: sensitive and resistant bacteria
Procedure: as §1

[23] = tested on: P. aeruginosa AK109; assay: MIC, agar plate dilution method; type: cell-based, Pseudomonas aeruginosa; settings: for antibacterial activity relative to the compound of Reference Example: Pseudomonas aeruginosa AK109; for MIC: Pseudomonas aeruginosa, P. aeruginosa AK109, 10^6 CFU/ml, Sensitivity Disk Agar, read-out: Minimum Inhibitory Concentration
Procedure: as §1

[24] = tested on: P. aeruginosa AKR17; assay: MIC, agar plate dilution method; type: cell-based, Pseudomonas aeruginosa; settings: for antibacterial activity relative to the compound of Reference Example: Pseudomonas aeruginosa AKR-17, resistant to all cephalosporins including Ceftazidime; for MIC: Pseudomonas aeruginosa, P. aeruginosa AKR17, 10^6 CFU/ml, Sensitivity Disk Agar, read-out: Minimum Inhibitory Concentration
Procedure: as §1

[25] = tested on: P. aeruginosa D15; assay: treatment of experimental infection of mice; type: in vivo

## CON=C(C(=O)NC1C(=O)N2C(C(=O)[O-])=C(C[N+]3(C)Cc4cc(O)c(O)cc4C3)CSC12)c1csc(N)n1 (centres unmarked) [Ex. 4-D, 7-[(Z)-2-(2-aminothiazol-4-yl)-2-methoxyiminoacetamido]-3-(5,6-dihydroxy-2-methyl-2-isoindolinium)methyl-3-cephem-4-carboxylate]
[1]
  MIC: 25 µg/mL (≈ 44.6 µM)
[2]
  MIC: 0.1 µg/mL (≈ 0.178 µM)
[3]
  MIC: 0.2 µg/mL (≈ 0.357 µM)
[4]
  MIC: 6.25 µg/mL (≈ 11.1 µM)
[5]
  MIC: ≤ 0.05 µg/mL
[6]
  MIC: 0.2 µg/mL (≈ 0.357 µM)
[7]
  antibacterial activity relative to the compound of Reference Example: at least 32 times
  MIC: 0.2 µg/mL (≈ 0.357 µM)
[8]
  MIC: ≤ 0.05 µg/mL
[9]
  MIC: 3.12 µg/mL (≈ 5.57 µM)
[10]
  MIC: 0.1 µg/mL (≈ 0.178 µM)
[11]
  MIC: 6.25 µg/mL (≈ 11.1 µM)
[12]
  MIC: 0.39 µg/mL (≈ 0.696 µM)
[13]
  MIC: 0.78 µg/mL (≈ 1.39 µM)
[14]
  MIC: 1.56 µg/mL (≈ 2.78 µM)
[15]
  MIC: 6.25 µg/mL (≈ 11.1 µM)
[16]
  MIC: ≤ 0.05 µg/mL
[17]
  MIC: 0.78 µg/mL (≈ 1.39 µM)
[18]; Escherichia coli, mice infected with E. coli Juhl, read-out: ED50
  ED50: 0.12 mg/kg
[18]; experimental infections of mice caused by E. coli Juhl
  efficacy relative to Ceftazidime: about twice as high
[19]; Staphylococcus aureus, mice infected with S. aureus Smith, read-out: ED50
  ED50: 6.2 mg/kg
[19]; experimental infections of mice caused by S. aureus Smith
  efficacy relative to Ceftazidime: about twice as high
[20]
  MIC: 25 µg/mL (≈ 44.6 µM)
[21]
  MIC: 0.2 µg/mL (≈ 0.357 µM)
  antibacterial activity relative to the compound of Reference Example: at least 32 times
[22]
  antibacterial activity (in words): particularly strong antibacterial activities
[23]
  antibacterial activity relative to the compound of Reference Example: at least 16 times
  MIC: 0.1 µg/mL (≈ 0.178 µM)
[24]
  antibacterial activity relative to the compound of Reference Example: at least 32 times
  MIC: 0.78 µg/mL (≈ 1.39 µM)
[25]; Pseudomonas aeruginosa, mice infected with P. aeruginosa D15, read-out: ED50
  ED50: 14 mg/kg
[25]; experimental infections of mice caused by P. aeruginosa D15
  efficacy relative to Ceftazidime: about twice as high

## C[N+]1(CC2=C(C(=O)[O-])N3C(=O)C(NC(=O)C(=NOC4CCCC4)c4csc(N)n4)C3SC2)Cc2cc(O)c(O)cc2C1 (centres unmarked) [Ex. 13-D, 7-[(Z)-2-(2-aminothiazol-4-yl)-2-cyclopentyloxyiminoacetamido]-3-(5,6-dihydroxy-2-methyl-2-isoindolinium)methyl-3-cephem-4-carboxylate]
[1]
  MIC: 12.5 µg/mL (≈ 20.3 µM)
[2]
  MIC: 0.05 µg/mL (≈ 0.0813 µM)
[3]
  MIC: 0.1 µg/mL (≈ 0.163 µM)
[4]
  MIC: 3.12 µg/mL (≈ 5.08 µM)
[5]
  MIC: 0.05 µg/mL (≈ 0.0813 µM)
[6]
  MIC: 0.1 µg/mL (≈ 0.163 µM)
[7]
  antibacterial activity relative to the compound of Reference Example: at least 32 times
  MIC: 0.78 µg/mL (≈ 1.27 µM)
[8]
  MIC: 0.05 µg/mL (≈ 0.0813 µM)
[9]
  MIC: 0.2 µg/mL (≈ 0.325 µM)
[10]
  MIC: 0.05 µg/mL (≈ 0.0813 µM)
[11]
  MIC: 1.56 µg/mL (≈ 2.54 µM)
[12]
  MIC: 0.05 µg/mL (≈ 0.0813 µM)
[13]
  MIC: 0.05 µg/mL (≈ 0.0813 µM)
[14]
  MIC: 0.1 µg/mL (≈ 0.163 µM)
[15]
  MIC: 0.78 µg/mL (≈ 1.27 µM)
[16]
  MIC: 0.025 µg/mL (≈ 0.0407 µM)
[17]
  MIC: 0.1 µg/mL (≈ 0.163 µM)
[20]; Pseudomonas maltophilia resistant to all cephalosporins
  antibacterial activity relative to the compound of Reference Example: at least twice as strong
[20]
  MIC: 12.5 µg/mL (≈ 20.3 µM)
[21]
  MIC: 0.1 µg/mL (≈ 0.163 µM)
  antibacterial activity relative to the compound of Reference Example: at least 32 times
[22]
  antibacterial activity (in words): particularly strong antibacterial activities
[23]
  antibacterial activity relative to the compound of Reference Example: at least 16 times
  MIC: 0.05 µg/mL (≈ 0.0813 µM)
[24]
  antibacterial activity relative to the compound of Reference Example: at least 32 times
  MIC: 0.39 µg/mL (≈ 0.634 µM)
